Measured values: ChEMBL document CHEMBL4610097, “Daphnane Diterpenoids from Daphne genkwa Inhibit PI3K/Akt/mTOR Signaling and Induce Cell Cycle Arrest and Apoptosis in Human Colon Cancer Cells” (J Nat Prod, 2020)
Calls of active or inactive are those of the source. The rule behind the calls is not given here.

Experiments:
[1] = test system: SW-620; assay: Induction of cell cycle arrest in human SW620 cells assessed as accumulation at S phase at 2.96 uM after 24 hrs by propidium iodide staining-based flow cytometric analysis (reference value: 23.83%); format: functional
[2] = test system: SW-620; assay: Induction of cell cycle arrest in human SW620 cells assessed as accumulation at G0/G1 phase at 11.84 uM after 24 hrs by propidium iodide staining-based flow cytometric analysis (reference value: 56.11%); format: functional
[3] = test system: SW-620; assay: Induction of apoptosis in human SW620 cells assessed as late apoptotic cells at 2.96 uM after 24 hrs by annexin V/propidium iodide staining-based flow cytometric analysis (reference value: 2.40%); format: functional
[4] = test system: SW-620; assay: Induction of apoptosis in human SW620 cells assessed as late apoptotic cells at 11.84 uM after 24 hrs by annexin V/propidium iodide staining-based flow cytometric analysis (reference value: 2.40%); format: functional
[5] = test system: SW-620; assay: Induction of apoptosis in human SW620 cells assessed as increase in cleaved caspase-3 at 0.74 to 11.84 uM after 24 hrs by Western blot analysis; format: functional, cell-based
[6] = test system: SW-620; assay: Induction of morphological changes in human SW620 cells assessed as nuclear condensation at […] to 1.48 uM after 24 hrs by acridine orange/propidium iodide staining based microscopic analysis; format: functional, cell-based
[7] = test system: SW-620; assay: Induction of apoptosis in human SW620 cells assessed as increase in cleaved PARP at 0.74 to 11.84 uM after 24 hrs by Western blot analysis; format: functional, cell-based
[8] = test system: SW-620; assay: Induction of cell cycle arrest in human SW620 cells assessed as accumulation at G2/M phase at 11.84 uM after 24 hrs by propidium iodide staining-based flow cytometric analysis (reference value: 20.06%); format: functional
[9] = test system: SW-620; assay: Effect on AKT expression in human SW620 cells at 0.74 to 11.84 uM after 24 hrs by Western blot analysis; format: cell-based; conditions: sw-620, 24 h
[10] = test system: SW-620; assay: Induction of cell cycle arrest in human SW620 cells assessed as accumulation at G0/G1 phase at 0.74 uM after 24 hrs by propidium iodide staining-based flow cytometric analysis (reference value: 56.11%); format: functional
[11] = test system: SW-620; assay: Induction of apoptosis in human SW620 cells assessed as early apoptotic cells at 2.96 uM after 24 hrs by annexin V/propidium iodide staining-based flow cytometric analysis (reference value: 0.36%); format: functional
[12] = test system: SW-620; assay: Induction of cell cycle arrest in human SW620 cells assessed as accumulation at G2/M phase at 2.96 uM after 24 hrs by propidium iodide staining-based flow cytometric analysis (reference value: 20.06%); format: functional
[13] = test system: SW-620; assay: Induction of cell cycle arrest in human SW620 cells assessed as accumulation at G0/G1 phase at 2.96 uM after 24 hrs by propidium iodide staining-based flow cytometric analysis (reference value: 56.11%); format: functional
[14] = test system: RKO; assay: Cytotoxicity against human RKO cells after 24 hrs by MTT assay; format: functional, cell-based
[15] = test system: SW-620; assay: Induction of apoptosis in human SW620 cells assessed as viable cells at 0.74 uM after 24 hrs by annexin V/propidium iodide staining-based flow cytometric analysis (reference value: 96.9%); format: functional; conditions: SW-620, 24 h, read-out: Activity

SMILES: C=C(C)[C@@]12O[C@@]3(/C=C/C=C/CCCCC)O[C@@H]1[C@@H]1[C@H](O)[C@@](O)(CO)[C@@H](O)[C@]4(O)C(=O)C(C)=C[C@H]4[C@@]1(O3)[C@H](C)[C@H]2OC(=O)c1ccccc1
- Activity [1]: 12.76%
- Activity [2]: 88.08%
- Activity [3]: 49.4%
- Activity [4]: 86.3%
- Activity [5]: Active
- Activity [6]: Active
- Activity [7]: Active
- Activity [8]: 2.43%
- Activity [9]: Non-Toxic
- Activity [10]: 76.93%
- Activity [11]: 6.18%
- Activity [12]: 5.17%
- Activity [13]: 82.07%
- IC50 [14]: 6.5 µM
- viability at 0.74 µM [15]: 80.8%
